We go through 9 cell lines from the supplement of paper PMC10307832.

Common to all, as to assay: relative viability (nuclei count vs DMSO), 5 days (fraction); higher = more cells survive
Compound in test [1]: CCOC1=CC=CC=C1N=NC2=C(NN(C2=O)C3=NC(=CS3)C4=CC=CC=C4)C [BAM7] + CC(=O)c1c(C)c2cnc(Nc3ccc(N4CCNCC4)cn3)nc2n(C2CCCC2)c1=O [Palbociclib] (partner 0.5 µM)
In a few lines:
(§1)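 Five library-drug doses in √10 steps were combined with a fixed anchor-drug dose, or a single drug was given alone, by pin tool to lung cancer cell lines in 1536-well plates the day after seeding. Nuclei were stained and counted after 5 days. Relative viability is the nuclei count in treated wells over that in vehicle wells, taken as the median of duplicate plates.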

Compound in test [2]: CCn1c(-c2nonc2N)nc2c(C#CC(C)(C)O)ncc(OC[C@H]3CCCNC3)c21 + Nc1nc2[nH]cc(CCc3ccc(C(=O)N[C@@H](CCC(=O)O)C(=O)O)cc3)c2c(=O)[nH]1 [Pemetrexed] (partner 0.2 µM)
In a few lines:
as §1

Compound in test [3]: CCOC1=CC=CC=C1N=NC2=C(NN(C2=O)C3=NC(=CS3)C4=CC=CC=C4)C [BAM7] + Cc1nc(NC(=O)N2CCC[C@H]2C(N)=O)sc1-c1ccnc(C(C)(C)C(F)(F)F)c1 [Alpelisib] (partner 2 µM)
In a few lines: as §1

Compound in test [4]: CCn1c(-c2nonc2N)nc2c(C#CC(C)(C)O)ncc(OC[C@H]3CCCNC3)c21 + CS(=O)(=O)N1CCN(Cc2cc3nc(-c4cccc5[nH]ncc45)nc(N4CCOCC4)c3s2)CC1 [Pictilisib] (partner 1 µM)
In a few lines:
as §1

As for NCI-H2342, the relative viability is 0.482 in test [1] (first compound 0.5 µM); 0.498 in test [1] (first compound 5 µM); 0.531 in test [1] (first compound 15.81 µM); 0.539 in test [1] (first compound 50 µM); 0.751 in test [2] (first compound 0.01 µM); 0.73 in test [2] (first compound 0.03162 µM). The relative viability is 0.767 in test [2] (first compound 0.1 µM), 0.754 in test [2] (first compound 0.3162 µM) and 0.8 in test [2] (first compound 1 µM).

Turning to SK-MES-1, the relative viability in test [1] (first compound 0.5 µM) turned out to be 0.332; in test [1] (first compound 5 µM), 0.35; in test [1] (first compound 15.81 µM) it was 0.308; in test [1] (first compound 50 µM) it was 0.272; in test [3] (first compound 0.5 µM) it was 1.1; in test [3] (first compound 5 µM), 0.9. Also, the relative viability amounted to 0.985 in test [3] (first compound 15.81 µM); 1.01 in test [3] (first compound 50 µM); 0.399 in test [4] (first compound 0.01 µM); 0.351 in test [4] (first compound 0.03162 µM); 0.363 in test [4] (first compound 0.1 µM); 0.339 in test [4] (first compound 0.3162 µM). Besides, the relative viability came out at 0.314 in test [4] (first compound 1 µM); 0.971 in test [2] (first compound 0.01 µM); 0.945 in test [2] (first compound 0.03162 µM); 0.947 in test [2] (first compound 0.1 µM); 0.909 in test [2] (first compound 0.3162 µM); 0.983 in test [2] (first compound 1 µM).

Consider HCC-366, for which the relative viability in test [1] (first compound 0.5 µM) amounted to 0.406; in test [1] (first compound 5 µM) it was 0.343; in test [1] (first compound 15.81 µM), 0.303; in test [1] (first compound 50 µM), 0.389; in test [3] (first compound 0.5 µM), 0.403; in test [3] (first compound 5 µM) it was 0.318. Besides, the relative viability turned out to be 0.324 in test [3] (first compound 15.81 µM); 0.322 in test [3] (first compound 50 µM); 0.235 in test [4] (first compound 0.01 µM); 0.214 in test [4] (first compound 0.03162 µM); 0.12 in test [4] (first compound 0.1 µM); 0.131 in test [4] (first compound 0.3162 µM). The relative viability was 0.218 in test [4] (first compound 1 µM); 0.183 in test [2] (first compound 0.01 µM); 0.179 in test [2] (first compound 0.03162 µM); 0.195 in test [2] (first compound 0.1 µM); 0.172 in test [2] (first compound 0.3162 µM); 0.182 in test [2] (first compound 1 µM).

As for 201T, the relative viability in test [1] (first compound 0.5 µM) was 0.358; in test [1] (first compound 5 µM), 0.336; in test [1] (first compound 15.81 µM), 0.307; in test [1] (first compound 50 µM) it was 0.335; in test [3] (first compound 0.5 µM) it was 1.05; in test [3] (first compound 5 µM) it was 1.05. Further, the relative viability in test [3] (first compound 15.81 µM) was determined as 0.825; in test [3] (first compound 50 µM), 1.01; in test [4] (first compound 0.01 µM) it was 0.722; in test [4] (first compound 0.03162 µM) it was 0.667; in test [4] (first compound 0.1 µM) it was 0.701; in test [4] (first compound 0.3162 µM), 0.644. Moreover, the relative viability was 0.723 in test [4] (first compound 1 µM); 0.321 in test [2] (first compound 0.01 µM); 0.317 in test [2] (first compound 0.03162 µM); 0.343 in test [2] (first compound 0.1 µM); 0.333 in test [2] (first compound 0.3162 µM); 0.311 in test [2] (first compound 1 µM).

For HCC-827, the relative viability in test [1] (first compound 0.5 µM) amounted to 0.532; in test [1] (first compound 5 µM), 0.467; in test [1] (first compound 15.81 µM) it was 0.493; in test [1] (first compound 50 µM) it was 0.481; in test [3] (first compound 0.5 µM), 1.03; in test [3] (first compound 5 µM), 0.97. Also, the relative viability came to 1.01 in test [3] (first compound 15.81 µM); 1 in test [3] (first compound 50 µM); 1.18 in test [4] (first compound 0.01 µM); 0.966 in test [4] (first compound 0.03162 µM); 0.865 in test [4] (first compound 0.1 µM); 0.916 in test [4] (first compound 0.3162 µM). Also, the relative viability in test [4] (first compound 1 µM) stood at 1.19; in test [2] (first compound 0.01 µM) it was 0.287; in test [2] (first compound 0.03162 µM), 0.315; in test [2] (first compound 0.1 µM) it was 0.241; in test [2] (first compound 0.3162 µM), 0.249; in test [2] (first compound 1 µM) it was 0.267.

Regarding NCI-H647, the relative viability came to 0.506 in test [1] (first compound 0.5 µM); 0.431 in test [1] (first compound 5 µM); 0.509 in test [1] (first compound 15.81 µM); 0.447 in test [1] (first compound 50 µM); 1.27 in test [3] (first compound 0.5 µM); 1.32 in test [3] (first compound 5 µM). Besides, the relative viability in test [3] (first compound 15.81 µM) turned out to be 1.05; in test [3] (first compound 50 µM), 1.17; in test [4] (first compound 0.01 µM), 0.366; in test [4] (first compound 0.03162 µM), 0.468; in test [4] (first compound 0.1 µM), 0.23; in test [4] (first compound 0.3162 µM), 0.368. Besides, the relative viability in test [4] (first compound 1 µM) is 0.44; in test [2] (first compound 0.01 µM) it was 0.196; in test [2] (first compound 0.03162 µM), 0.168; in test [2] (first compound 0.1 µM) it was 0.179; in test [2] (first compound 0.3162 µM), 0.163; in test [2] (first compound 1 µM), 0.142.

In the case of NCI-H2023, the relative viability was determined as 0.375 in test [1] (first compound 0.5 µM); 0.316 in test [1] (first compound 5 µM); 0.293 in test [1] (first compound 15.81 µM); 0.327 in test [1] (first compound 50 µM); 0.639 in test [3] (first compound 0.5 µM); 0.507 in test [3] (first compound 5 µM). Moreover, the relative viability in test [3] (first compound 15.81 µM) amounted to 0.502; in test [3] (first compound 50 µM), 0.485; in test [4] (first compound 0.01 µM) it was 0.214; in test [4] (first compound 0.03162 µM), 0.269; in test [4] (first compound 0.1 µM) it was 0.207; in test [4] (first compound 0.3162 µM), 0.196. For the same cell line, the relative viability in test [4] (first compound 1 µM) was 0.236; in test [2] (first compound 0.01 µM), 0.211; in test [2] (first compound 0.03162 µM), 0.26; in test [2] (first compound 0.1 µM) it was 0.211; in test [2] (first compound 0.3162 µM) it was 0.176; in test [2] (first compound 1 µM) it was 0.178.

As to NCI-H1703, the relative viability in test [3] (first compound 0.5 µM) was 0.316; in test [3] (first compound 5 µM), 0.322; in test [3] (first compound 15.81 µM) it was 0.291; in test [3] (first compound 50 µM), 0.36; in test [4] (first compound 0.01 µM), 0.228; in test [4] (first compound 0.03162 µM), 0.254. Also, the relative viability in test [4] (first compound 0.1 µM) came out at 0.226; in test [4] (first compound 0.3162 µM), 0.208; in test [4] (first compound 1 µM) it was 0.224.

For the cell line Calu-6, the relative viability stood at 0.986 in test [3] (first compound 0.5 µM); 0.931 in test [3] (first compound 5 µM); 0.932 in test [3] (first compound 15.81 µM); 1.11 in test [3] (first compound 50 µM); 0.886 in test [4] (first compound 0.01 µM); 0.973 in test [4] (first compound 0.03162 µM). Further, the relative viability worked out at 0.946 in test [4] (first compound 0.1 µM), 0.942 in test [4] (first compound 0.3162 µM) and 0.909 in test [4] (first compound 1 µM).
